23 molecules from patent publication US11667602B2, “Compounds and their use” (AstraZeneca AB, priority 2020, dated 2023) can be followed below.

pEC50: −log10 of the molar value.

This assay deals with T1, human RXFP1 (Homo sapiens, UniProt Q9HBX9).
T1 sequence (Q9HBX9 1-757): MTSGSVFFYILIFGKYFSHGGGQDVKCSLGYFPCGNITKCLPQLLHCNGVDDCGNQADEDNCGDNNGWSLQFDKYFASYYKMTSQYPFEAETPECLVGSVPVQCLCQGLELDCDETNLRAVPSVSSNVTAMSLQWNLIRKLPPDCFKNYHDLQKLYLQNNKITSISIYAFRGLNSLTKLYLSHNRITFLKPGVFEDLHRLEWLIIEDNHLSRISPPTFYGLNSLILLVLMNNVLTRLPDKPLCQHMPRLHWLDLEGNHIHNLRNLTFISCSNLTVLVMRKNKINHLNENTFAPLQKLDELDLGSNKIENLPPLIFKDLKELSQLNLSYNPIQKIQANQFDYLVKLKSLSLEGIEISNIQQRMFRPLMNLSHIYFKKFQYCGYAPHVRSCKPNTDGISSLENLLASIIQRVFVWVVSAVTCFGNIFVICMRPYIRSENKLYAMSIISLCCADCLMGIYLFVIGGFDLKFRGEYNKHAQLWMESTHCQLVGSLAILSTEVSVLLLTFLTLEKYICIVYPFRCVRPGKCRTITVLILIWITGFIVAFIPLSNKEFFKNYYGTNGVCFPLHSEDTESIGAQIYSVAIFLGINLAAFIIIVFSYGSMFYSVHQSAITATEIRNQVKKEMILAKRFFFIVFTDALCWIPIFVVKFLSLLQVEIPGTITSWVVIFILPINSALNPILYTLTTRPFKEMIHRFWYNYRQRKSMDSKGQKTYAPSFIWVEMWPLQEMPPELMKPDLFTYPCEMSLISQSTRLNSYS
Description: RXFP1 Hu cAMP (Test A). The format is cell-based. Set-up: expressed in transfected cells; host or cells: Jump-In T-REx CHO-K1 cells (ThermoFisher), induced with 10 ng/ml doxycycline for 24 h. The following applies: RXFP1 Hu cAMP; for pEC50: read-out: Test A EC50. The method, boiled down:
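Competitive HTRF cAMP readout (2 h, room temperature) in CHO-K1 cells stably expressing human RXFP1, induced with 10 ng/ml doxycycline for 24 h; IBMX 0.5 mM final.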

One may read the pEC50 as the negative decadic logarithm of the EC50, by convention in mol/L. For the molecule `COc1cc(C#N)c(O[C@H]2CC[C@@](C)(C(=O)O)CC2)cc1C(=O)Nc1cc(C)ccc1C(=O)NCC1(F)CCC1` [Example 172], the “Test A Sinf” value worked out at 125% and the negative logarithm of the EC50 (pEC50) is 6.01. “(1R,4s)-4-(2-Fluoro-5-(((1S*,2R*)-2-((4-fluoro-3-(pentafluoro-λ6-sulfaneyl)phenyl)carbamoyl)cyclobutyl)carbamoyl)-4-methoxyphenoxy)-1-methylcyclohexane-1-carboxylic acid [Example 571]”: the “Test A Sinf” value is 100%. For the molecule `CCc1cc(OC)c(C(=O)N[C@@H]2[C@H]3CC[C@H](C3)[C@@H]2C(=O)NC23CC(F)(C2)C3)cc1O[C@H]1CC[C@@](C)(C(=O)O)CC1` [Example 383], the “Test A Sinf” value stood at 89% and the negative logarithm of the EC50 (pEC50) was 6.92. For `COc1cc(F)c(O[C@H]2CC[C@@](C)(C(=O)O)CC2)cc1C(=O)N[C@@H]1[C@@H](O)[C@@H](O)C[C@@H]1C(=O)Nc1cccc(S(=O)(=O)C(F)(F)F)c1` (racemic) [Example 394, (1R,4s)-4-(5-(((1SR,2RS,3SR,5SR)-2,3-Dihydroxy-5-((3-((trifluoromethyl)sulfonyl)phenyl)carbamoyl)cyclopentyl)carbamoyl)-2-fluoro-4-methoxyphenoxy)-1-methylcyclohexane-1-carboxylic acid], the pEC50 was under 4.40. On to `COc1cc(F)c(-c2ccc(OCCCC(=O)O)cc2)cc1C(=O)N[C@@H]1[C@H]2CC[C@H](C2)[C@@H]1C(=O)Nc1cccc(S(=O)(=O)C(F)(F)F)c1` [Example 251, 4-((2′-Fluoro-4′-methoxy-5′-(((1S,2R,3S,4R)-3-((3-((trifluoromethyl)sulfonyl)phenyl)carbamoyl)bicyclo[2.2.1]heptan-2-yl)carbamoyl)-[1,1′-biphenyl]-4-yl)oxy)butanoic acid], for which the “Test A Sinf” value was found to be 101% and the negative-log EC50 (pEC50) was 7.48. The matching figures for `COc1cc(F)c(O[C@H]2CC[C@@](C)(C(=O)O)CC2)cc1C(=O)N[C@H]1[C@H]2CC[C@H](CC2)[C@H]1C(=O)NCC1(C)CCC1` (racemic) [Example 470, (1R,4s)-4-(2-Fluoro-4-methoxy-5-(((2SR,3RS)-3-(((1-methylcyclobutyl)methyl)carbamoyl)bicyclo[2.2.2]octan-2-yl)carbamoyl)phenoxy)-1-methylcyclohexane-1-carboxylic acid]: 102% and 7.77.

For the molecule `COc1cc(F)c(O[C@H]2CC[C@@](C)(C(N)=O)CC2)cc1C(=O)N[C@@H]1[C@@H]2CC[C@@H](C2)[C@@H]1C(=O)NCC1(C)CCC1` [Example 421, (1S,2S,3R,4R)-3-(5-(((1s,4S)-4-Carbamoyl-4-methylcyclohexyl)oxy)-4-fluoro-2-methoxybenzamido)-N-((1-methylcyclobutyl)methyl)bicyclo[2.2.1]heptane-2-carboxamide], the “Test A Sinf” value was found to be 96% and the pEC50 was 7.36. For `COc1cc(F)c(O[C@H]2CC[C@@H](C(=O)O)CC2)cc1C(=O)N[C@H]1[C@@H](C(=O)Nc2ccc(F)c(S(=O)(=O)C(F)(F)F)c2)[C@@H]2C=C[C@H]1C2` [Example 489] the same measures were 115% and 7.92.

`COc1cc(C#N)c(O[C@H]2CC[C@@](C)(C(=O)O)CC2)cc1C(=O)N[C@@H]1[C@H]2CC[C@H](C2)[C@@H]1C(=O)NC1CCCCC1` [Example 121]: the “Test A Sinf” value is 98% and the negative logarithm of the EC50 (pEC50) is 6.89. The matching figures for `COc1cc(F)c(O[C@H]2C[C@@H](CC(=O)O)C2)cc1C(=O)N[C@@H]1[C@@H]2CC[C@@H](C2)[C@@H]1C(=O)Nc1cccc(S(=O)(=O)C(F)(F)F)c1` [Example 475, 2-((1S,3s)-3-(2-Fluoro-4-methoxy-5-(((1R,2R,3S,4S)-3-((3-((trifluoromethyl)sulfonyl)phenyl)carbamoyl)bicyclo[2.2.1]heptan-2-yl)carbamoyl)phenoxy)cyclobutyl)acetic acid]: 100% and 6.70.

On to `COc1cc(F)c(O[C@H]2CC[C@@](CO)(C(=O)O)CC2)cc1C(=O)N[C@H]1[C@@H](C(=O)NCC2(C)CCC2)[C@H]2CC[C@@H]1O2` (racemic) [Example 332], for which the “Test A Sinf” value was 103%. Turning to `COc1cc(F)c(-c2cnc([C@@H]3C[C@H]3C(=O)O)cn2)cc1C(=O)N[C@@H]1[C@H]2CC[C@H](C2)[C@@H]1C(=O)Nc1cccc(S(=O)(=O)C(F)(F)F)c1` (single isomer, unassigned) [Example 263, (1R*,2R*)-2-(5-(2-Fluoro-4-methoxy-5-(((1S,2R,3S,4R)-3-((3-((trifluoromethyl)sulfonyl)phenyl)carbamoyl)bicyclo[2.2.1]heptan-2-yl)carbamoyl)phenyl)pyrazin-2-yl)cyclopropane-1-carboxylic acid], the “Test A Sinf” value was found to be 106% and the pEC50 is 7.08.

Turning to `COc1cc(F)c(O[C@H]2CC[C@@](C)(C(=O)O)CC2)cc1C(=O)N[C@@H]1COC[C@@H]1C(=O)NCC(C)(C)C` (racemic) [Example 345], the pEC50 is under 4.40. Same read-out and setting: as for `COc1cc(F)c(OC2CCC(C)(C(=O)O)CC2)cc1C(=O)NC1CC(OC)CC1C(=O)Nc1cccc(S(=O)(=O)C(F)(F)F)c1` (single isomer, unassigned) [Example 522, (1R,4s)-4-(2-Fluoro-4-methoxy-5-(((1S*,2R*,4S*)-4-methoxy-2-((3-((trifluoromethyl)sulfonyl)phenyl)carbamoyl)cyclopentyl)carbamoyl)phenoxy)-1-methylcyclohexane-1-carboxylic acid], the figure is under 4.40. For the molecule `COc1cc(F)c(OC2CCC(CO)(C(=O)O)CC2)cc1C(=O)N[C@H]1[C@H]2CC[C@H](C2)[C@H]1C(=O)Nc1cccc(S(=O)(=O)C(F)(F)F)c1` (relative stereo) [Example 585, (1R,4s)-4-(2-Fluoro-4-methoxy-5-(((1S*,2S*,3R*,4R*)-3-((3-((trifluoromethyl)sulfonyl)phenyl)carbamoyl)bicyclo[2.2.1]heptan-2-yl)carbamoyl)phenoxy)-1-(hydroxymethyl)cyclohexane-1-carboxylic acid], the “Test A Sinf” value came to 93% and the pEC50 was 6.62. Consider `COc1cc(C#N)c(O[C@H]2CC[C@@](C)(C(=O)O)CC2)cc1C(=O)Nc1cc(C)ccc1C(=O)N[C@H](C)C(C)C` [Example 170], for which the “Test A Sinf” value was determined as 136% and the pEC50 is 6.72.

As to `COc1cc(F)c(-c2ccc([C@@H](C(=O)O)N(C)C)cc2)cc1C(=O)N[C@@H]1[C@H]2CC[C@H](C2)[C@@H]1C(=O)Nc1cccc(S(=O)(=O)C(F)(F)F)c1` (racemic) [Example 295], the “Test A Sinf” value is given as 100% and the negative logarithm of the EC50 (pEC50) was 6.30. The matching figures for `CCC(C)(C)NC(=O)[C@H]1[C@@H]2CC[C@@H](C2)[C@H]1NC(=O)c1cc(O[C@H]2CC[C@@](C)(C(=O)O)CC2)c(C#N)cc1OC` [Example 126]: 98% and 7.33. In the case of `COc1cc(F)c(OC2CCC(CO)(C(=O)O)CC2)cc1C(=O)NC1CC(OC)CC1C(=O)NCC1(C)CCC1` (single isomer, unassigned) [Example 550, (1R,4s)-4-(2-Fluoro-4-methoxy-5-(((1S*,2R*,4R*)-4-methoxy-2-(((1-methylcyclobutyl)methyl)carbamoyl)cyclopentyl)carbamoyl)phenoxy)-1-(hydroxymethyl)cyclohexane-1-carboxylic acid], the pEC50 was under 4.40.

Take `COc1cc(F)c(O[C@H]2CC[C@@](C)(C(=O)O)CC2)cc1C(=O)NC1C(O)CCC1C(=O)Nc1cccc(S(=O)(=O)C(F)(F)F)c1` (single isomer, unassigned) [Example 528, (1R,4s)-4-(2-Fluoro-5-(((1S*,2S*,5S*)-2-hydroxy-5-((3-((trifluoromethyl)sulfonyl)phenyl)carbamoyl)cyclopentyl)carbamoyl)-4-methoxyphenoxy)-1-methylcyclohexane-1-carboxylic acid]: the negative logarithm of the EC50 (pEC50) was under 4.40. With `COc1cc(F)c(OC[C@H]2C[C@@H](C(=O)O)C2)cc1C(=O)N[C@@H]1[C@@H]2CC[C@@H](C2)[C@@H]1C(=O)Nc1cccc(S(=O)(=O)C(F)(F)F)c1` [Example 473, (1S,3s)-3-((2-Fluoro-4-methoxy-5-(((1R,2R,3S,4S)-3-((3-((trifluoromethyl)sulfonyl)phenyl)carbamoyl)bicyclo[2.2.1]heptan-2-yl)carbamoyl)phenoxy)methyl)cyclobutane-1-carboxylic acid], the “Test A Sinf” value stood at 104% and the negative-log EC50 (pEC50) was 6.85. With `COc1cc(C#N)c(O[C@H]2CC[C@@](C)(C(=O)O)CC2)cc1C(=O)N[C@@H]1[C@H]2CC[C@H](C2)[C@@H]1C(=O)NCCCF` [Example 135], the “Test A Sinf” value is reported as 76%. Turning to `COc1cc(C#N)c(O[C@H]2CC[C@@](C)(C(=O)O)CC2)cc1C(=O)N[C@@H]1[C@H]2CC[C@H](C2)[C@@H]1C(=O)N[C@H]1CCCC[C@H]1CC(F)(F)F` [Example 134], the “Test A Sinf” value was 104% and the pEC50 was 7.36.
